Reference: patent US20240226001A1, “Contact Lenses And Other Eye-Contacting Matrices Carrying Mitochondrially-Targeted Antioxidants” (Mitotech S.A., priority 2015, published 2024)
Where “and” joins values, the source holds several entries; their conditions need not be identical. Equal values may be shown once. Read-outs that look alike come from different tables or passages of the source.

Legend:
[1] = Adsorption of SkQ1 from saline on soft disposable contact lens, retention in saline, extraction with 50% acetonitrile (Example 2); type: physicochemical
Description: Lens pre-wash: soft disposable contact lenses were thoroughly rinsed with saline solution (0.9% NaCl) and incubated in this solution overnight. Preparation of 2.5 μM SkQ1 solution: 4 mL of saline solution was placed in dark glass vials. 40 μL of 500 μM SkQ1 solution in 50% ethanol was added into each vial yielding 2.5 μM SkQ1 solution. Solution in the vial was thoroughly mixed and then incubated overnight to yield A1 series solution. Then aliquots of A1 series were collected from these vials.
During the experiment a pre-washed contact lens was placed into a glass vial with 2.5 uM SkQ1 solution and incubated at +4° C.-+8 °C for 4 days. Then the contact lenses were removed from the 2.5 μM SkQ1 solution, rinsed with saline solution and placed into fresh saline solution and incubated overnight at +4° C.-+8° C. to yield A2 series solution. Aliquots of the A2 series solution were collected from the vials where lenses were incubated in 2.5 μM SkQ1 solution.
After the above described overnight lens incubation in saline solution, lenses were placed in vials containing 500 μL of 50% acetonitrile and mixed during 1 hour at +25° C. Then aliquots of this acetonitrile solution was collected (A3 series).
The content of SkQ1 in the collected aliquots was analyzed using LCMS/MS.

[2] = system: rabbit eyes; test: SkQ1 content of experimental lenses taken from rabbits eyes (Example 3); type: in vivo; settings: for SkQ1 conc. in experimental lenses: 50% acetonitrile extract; for SkQ1 conc. in experimental lenses / SkQ1 amount in experimental lenses: single samples; for Average SkQ1 amount in experimental lenses: average of 2 samples
Description: (§1) The experiment was performed as follows: contact lenses were supplemented with SkQ1 as described in Example 2, then some lenses were placed on rabbit eyes and some lenses left aside in saline solution. At certain time points (see below in the table 3) contact lenses were removed from rabbits' eyes (experimental lenses) or saline solution (control lenses) and such rabbits were euthanized and their cornea were taken for SkQ1 content analysis. Then SkQ1 was extracted from the collected lenses and cornea samples using 50% acetonitrile solution and the SkQ1 amount in the extracts was determined using LCMS/MS.

[3] = system: rabbit cornea; test: SkQ1 concentration in rabbit cornea after instillation of eye drops (control experiment); type: in vivo; settings: eye drops containing 1.55 μg/mL of SkQ1, FIG. 2B
Description: Thus SkQ1 was efficiently transferred from the experimental lens into the eye. In the control experiment, SkQ1 was administered into the rabbit eye by instillation of eye drops containing 1.55 μg/mL of SkQ1. At certain time points, samples of rabbit cornea were taken and analyzed for SkQ1 content using LCMS/MS. […] Thus, the mode of accumulation of SkQ1 in the cornea is different when SkQ1 is administered via contact lenses (compare graphs on FIG. 2A and FIG. 2B).

[4] = SkQ1 content of control lenses (intact lenses kept in saline solution) (Example 3); type: physicochemical; settings: for SkQ1 conc. in control lenses: 50% acetonitrile extract
Description: as §1

[5] = system: rabbit cornea; test: SkQ1 concentration in rabbit cornea after SkQ1-supplemented contact lens (Example 3); type: in vivo; settings: for SkQ1 nM in cornea / SkQ1 ng per g of cornea / SkQ1 concentration in the cornea (extract): single samples
Description: as §1

[6] = as above; type: in vivo; settings: rabbit; for concentration at 30 min / concentration at 1 h / concentration at 2 h: topical; for concentration at 30 min: 30 min after lens placement; for concentration at 1 h: 1 hour after lens placement; for concentration at 2 h: 2 hours after lens placement
Description: as §1

[7] = Adsorption of MTCs on a matrix from PBS versus 50% ethanol, HPLC (Example 4); type: physicochemical; settings: 250 nM solution in dark glass vials; adsorption in 50% ethanol negligible
Description: It must be noted that SkQ3 differs from SkQ1 by the antioxidant moiety (A moiety in the formula I—see above), while SkB1 differs from SkQ1 by both the linker (L moiety) and targeting moiety (B moiety). So in this experiment, variations in all 3 parts of MTC molecule were successfully used.
The experiment was conducted as follows: 990 μl of phosphate buffered saline (PBS) or 50% water-ethanol solution (SkQ adsorption in 50% ethanol is negligible) was placed in dark glass chromatography vials (Waters, p/n 186000847c). 10 ul of 25 μM SkQ solution in ethanol was then added to each vial, yielding a 250 nM solution. The vials were vigorously mixed and the SkQ concentration in each vial (100 μl samples) was analyzed by HPLC using a Luna C 18 (2), Phenomenex, 250 MM '4.6 mm column with a sorbent particle size of 5 μm. The liquid phase used was acetonitrile:water (56:44), and the flow speed was 1 ml/min. at 25° C. UV detection was performed at A260.

[8] = A1 series: 2.5 μM SkQ1 saline solution before lens
[9] = A2 series: saline solution after lens incubation
[10] = A3 series: 50% acetonitrile extract of lens, 1 hour at +25° C.
[11] = cornea (50% acetonitrile extract), single samples, read-out: SkQ1 concentration in the cornea (extract)
[12] = cornea, average of 2 samples, read-out: SkQ1 Aver. nM in cornea
[13] = cornea, single samples, read-out: SkQ1 nM in cornea
[14] = cornea, single samples, read-out: SkQ1 ng per g of cornea

Q: Which “Calculated total SkQ1 amount in the vial, M ± SE (n = 9)” value [1, 8] does the source give for `CC1=C(C)C(=O)C(CCCCCCCCCC[P+](c2ccccc2)(c2ccccc2)c2ccccc2)=CC1=O` [SkQ1] here?
A: Its value is 3.69 µg and 3.69 ± 0.11 µg.

Q: And the “SkQ1 concentration found, M ± SE (n = 9)” value [1, 8]?
A: The value was 0.97 ± 0.03 µg/mL.

Q: And the “Calculated total SkQ1 amount in the vial, M ± SE (n = 9)” value [1, 9]?
A: The value was 0.19 µg and 0.19 ± 0.07 µg.

Q: What about the “SkQ1 concentration found, M ± SE (n = 9)” value [1, 9] of the same molecule?
A: Its value is 0.1 ± 0.04 µg/mL.

Q: What about the “Calculated total SkQ1 amount in the vial (=total SkQ1 amount extracted from the lens), M ± SE (n = 9)” value [1, 10] of the same molecule?
A: The value was 2.5 µg and 2.5 ± 0.08 µg.

Q: And the “SkQ1 concentration found, M ± SE (n = 9)” value [1, 10]?
A: Its value is 9.9 ± 0.33 µg/mL.

Q: And the “SkQ1 conc. in experimental lenses” value ([2]; 30 min on rabbit eye)?
A: Its value is 2.868 µg/mL and 3.006 µg/mL.

Q: And the “Average SkQ1 amount in experimental lenses” value (“Average SkQ1 amount” for short) ([2]; 30 min on rabbit eye)?
A: Its value is 2.38 nmoles/sample.

Q: And the “SkQ1 amount in experimental lenses” value ([2]; 30 min on rabbit eye)?
A: The value was 2.324 nmoles/sample and 2.436 nmoles/sample.

Q: And the “Amount of SkQ1 in the contact lens placed on the eye over time” value ([2]; 30 min to 6 hours, FIG. 1)?
A: The value was “decreased with time”.

Q: What about the “SkQ1 conc. in experimental lenses” value ([2]; 1 hour on rabbit eye) of the same molecule?
A: Its value is 3.339 µg/mL and 3.200 µg/mL.

Q: What about the “Average SkQ1 amount” value ([2]; 1 hour on rabbit eye) of the same molecule?
A: Its value is 2.65 nmoles/sample.

Q: And the “SkQ1 amount in experimental lenses” value ([2]; 1 hour on rabbit eye)?
A: Its value is 2.706 nmoles/sample and 2.593 nmoles/sample.

Q: What about the “SkQ1 conc. in experimental lenses” value ([2]; 2 hours on rabbit eye) of the same molecule?
A: The value was 2.77 µg/mL and 2.854 µg/mL.

Q: And the “Average SkQ1 amount” value ([2]; 2 hours on rabbit eye)?
A: The value was 2.279 nmoles/sample.

Q: And the “SkQ1 amount in experimental lenses” value ([2]; 2 hours on rabbit eye)?
A: Its value is 2.244 nmoles/sample and 2.313 nmoles/sample.

Q: And the “SkQ1 conc. in experimental lenses” value ([2]; 6 hours on rabbit eye)?
A: The value was 1.448 µg/mL and 1.229 µg/mL.

Q: And the “Average SkQ1 amount” value ([2]; 6 hours on rabbit eye)?
A: The value was 1.114 nmoles/sample.

Q: What about the “SkQ1 amount in experimental lenses” value ([2]; 6 hours on rabbit eye) of the same molecule?
A: Its value is 1.174 nmoles/sample and 1.053 nmoles/sample.

Q: What about the “Time of maximum SkQ1 concentration in cornea” value [3] of the same molecule?
A: Its value is 30 min.

Q: What about the “SkQ1 amount in control lenses” value ([4]; 30 min in saline) of the same molecule?
A: The value was 4.611 nmoles/sample.

Q: And the “SkQ1 conc. in control lenses” value ([4]; 30 min in saline)?
A: The value was 5.690 µg/mL.

Q: And the “SkQ1 concentration on intact control lenses left in saline over time” value ([4]; 30 min to 6 hours, FIG. 1)?
A: Its value is “stayed stable”.

Q: And the “SkQ1 amount in control lenses” value ([4]; 1 hour in saline)?
A: The value was 4.966 nmoles/sample.

Q: And the “SkQ1 conc. in control lenses” value ([4]; 1 hour in saline)?
A: The value was 6.129 µg/mL.

Q: What about the “SkQ1 amount in control lenses” value ([4]; 2 hours in saline) of the same molecule?
A: The value was 5.107 nmoles/sample.

Q: What about the “SkQ1 conc. in control lenses” value ([4]; 2 hours in saline) of the same molecule?
A: Its value is 6.302 µg/mL.

Q: And the “SkQ1 amount in control lenses” value ([4]; 6 hours in saline)?
A: Its value is 4.377 nmoles/sample.

Q: And the “SkQ1 conc. in control lenses” value ([4]; 6 hours in saline)?
A: The value was 5.052 µg/mL.

Q: What about the “SkQ1 nM in cornea” value ([5]; 30 min after lens placement) of the same molecule?
A: Its value is 4.96 nM.

Q: What about the “SkQ1 ng per g of cornea” value ([5]; 30 min after lens placement) of the same molecule?
A: The value was 3.06 ng per g of cornea.

Q: What about the “SkQ1 concentration in the cornea (extract)” value ([5]; 30 min after lens placement) of the same molecule?
A: Its value is 0.51 ng/mL.

Q: What about the “SkQ1 nM in cornea” value ([5]; 1 hour after lens placement) of the same molecule?
A: The value was 14.30 nM.

Q: And the “SkQ1 ng per g of cornea” value ([5]; 1 hour after lens placement)?
A: Its value is 8.82 ng per g of cornea.

Q: And the “SkQ1 concentration in the cornea (extract)” value ([5]; 1 hour after lens placement)?
A: The value was 1.47 ng/mL.

Q: And the “SkQ1 nM in cornea” value ([5]; 2 hours after lens placement)?
A: Its value is 13.32 nM.

Q: What about the “SkQ1 ng per g of cornea” value ([5]; 2 hours after lens placement) of the same molecule?
A: The value was 8.22 ng per g of cornea.

Q: And the “SkQ1 concentration in the cornea (extract)” value ([5]; 2 hours after lens placement)?
A: Its value is 1.37 ng/mL.

Q: What about the “Concentration of SkQ1 in the rabbits' eye cornea over time” value ([5]; administered via contact lens, FIG. 2A) of the same molecule?
A: The value was “gradually increased”.

Q: What about the concentration at 30 min [6, 11] of the same molecule?
A: Its concentration at 30 min is 0.64 ng/mL.

Q: And the concentration at 1 h [6, 11]?
A: Its concentration at 1 h is 1.56 ng/mL.

Q: What about the concentration at 2 h [6, 11] of the same molecule?
A: Its concentration at 2 h is 1.46 ng/mL.

Q: What about the concentration at 6 h ([6]; cornea, other: SkQ1-supplemented contact lens placed on the eye, 6 hours after lens placement, average of 2 samples, read-out: SkQ1 Aver. nM in cornea) of the same molecule?
A: The concentration at 6 h was 17.8 nM.

Q: And the concentration at 30 min [6, 12]?
A: Its concentration at 30 min is 5.59 nM.

Q: What about the concentration at 30 min [6, 13] of the same molecule?
A: Its concentration at 30 min is 6.22 nM.

Q: And the concentration at 30 min [6, 14]?
A: The concentration at 30 min was 3.84 ng/g.

Q: What about the concentration at 1 h [6, 12] of the same molecule?
A: Its concentration at 1 h is 14.7 nM.

Q: What about the concentration at 1 h [6, 13] of the same molecule?
A: Its concentration at 1 h is 15.2 nM.

Q: What about the concentration at 1 h [6, 14] of the same molecule?
A: The concentration at 1 h was 9.36 ng/g.

Q: And the concentration at 2 h [6, 12]?
A: Its concentration at 2 h is 13.8 nM.

Q: And the concentration at 2 h [6, 13]?
A: The concentration at 2 h was 14.2 nM.

Q: What about the concentration at 2 h [6, 14] of the same molecule?
A: Its concentration at 2 h is 8.76 ng/g.

Q: What about the “Concentration in PBS as % of the concentration in 50% ethanol” value (from here on “Concentration in PBS as %”) [7] of the same molecule?
A: Its value is 51.7%.

Q: With `CC1=C(C)C(=O)C(CCCCCCCCCC[P+](c2ccccc2)(c2ccccc2)c2ccccc2)=C(C)C1=O` [SkQ3] as the molecule, how does the “Concentration in PBS as %” value [7] read?
A: The value was 29.6%.

Q: For `COc1ccc2c(CC(=O)OCCCCCCCC3=CC(=O)C(C)=C(C)C3=O)c3[n+](cc2c1OC)CCc1cc2c(cc1-3)OCO2` [SkQB1], which “Concentration in PBS as %” value [7] is on record?
A: Its value is 63.8%.
